Laboratory results reported in patent US20050148627A1, “Benzopyran compounds for use in the treatment and prevention of inflammation related conditions” (priority 2003, published 2005).
“And” between values parts separate entries of the source, which are not always exact repeats. Identical values can stand only once.

Legend:
[1] = molecular target: COX-1 (Homo sapiens, UniProt P23219); assay: biochemical
Sequence of COX-1 (P23219 24-599): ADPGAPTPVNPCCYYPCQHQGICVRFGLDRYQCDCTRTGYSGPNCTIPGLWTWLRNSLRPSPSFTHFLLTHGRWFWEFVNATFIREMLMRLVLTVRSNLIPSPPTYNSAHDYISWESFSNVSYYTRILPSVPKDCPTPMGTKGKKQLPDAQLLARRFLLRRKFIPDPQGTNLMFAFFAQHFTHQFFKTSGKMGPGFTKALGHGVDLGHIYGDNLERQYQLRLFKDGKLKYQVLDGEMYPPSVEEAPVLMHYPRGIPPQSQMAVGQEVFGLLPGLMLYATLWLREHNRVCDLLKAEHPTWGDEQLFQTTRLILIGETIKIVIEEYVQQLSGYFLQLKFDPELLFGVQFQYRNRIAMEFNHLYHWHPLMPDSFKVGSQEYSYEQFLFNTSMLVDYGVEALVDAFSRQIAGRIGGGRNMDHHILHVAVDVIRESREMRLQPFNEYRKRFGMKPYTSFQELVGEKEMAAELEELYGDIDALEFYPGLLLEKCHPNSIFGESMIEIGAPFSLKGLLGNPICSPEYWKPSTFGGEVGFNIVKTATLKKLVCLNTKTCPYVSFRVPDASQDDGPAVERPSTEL

SMILES | melting point | IC50 [1]
CC(F)(F)c1ccc2c(c1)C=C(C(=O)O)C(C(F)(F)F)O2 (stereo not drawn) [Example 34d, 6-(1,1-difluoroethyl)-2-(trifluoromethyl)-2H-chromene-3-carboxylic acid] | 156 to 158 °C (dec.) | –
Cc1cc2c(c(C)c1Cl)C=C(C(=O)O)[C@H](C(F)(F)F)O2 [Example 101, (2R)-6-chloro-5,7-dimethyl-2-(trifluoromethyl)-2H-chromene-3-carboxylic acid] | – | > 100 µM and 430 µM and > 500 µM
Cc1c(C)c2c(c(C)c1Cl)C=C(C(=O)O)C(C(F)(F)F)O2 (stereo not drawn) [Example 104] | – | 6.75 µM and 12.1 µM
Cc1cc(Cl)c(C)c2c1OC(C(F)(F)F)C(C(=O)O)=C2 (stereo not drawn) [Example 105, 6-chloro-5,8-dimethyl-2-(trifluoromethyl)-2H-chromene-3-carboxylic acid] | – | 3.32 µM and 2 µM
CCC(C)(C)c1ccc2c(c1)OC(C(F)(F)F)C(C(=O)O)=C2 (stereo not drawn) [Example 106, 7-tert-pentyl-2-(trifluoromethyl)-2H-chromene-3-carboxylic acid] | – | > 100 µM and 93 µM
CCCC(C)(C)c1ccc2c(c1)OC(C(F)(F)F)C(C(=O)O)=C2 (stereo not drawn) [Example 108, 7-(1,1-dimethylbutyl)-2-(trifluoromethyl)-2H-chromene-3-carboxylic acid] | – | > 100 µM and 169 µM
CCCCC(C)(C)c1ccc2c(c1)OC(C(F)(F)F)C(C(=O)O)=C2 (stereo not drawn) [Example 109, 7-(1,1-dimethylpentyl)-2-(trifluoromethyl)-2H-chromene-3-carboxylic acid] | – | 0.413 µM and < 0.137 µM
CCCCC(C)(C)c1cc2c(cc1Cl)C=C(C(=O)O)C(C(F)(F)F)O2 (stereo not drawn) [Example 110, 6-chloro-7-(1,1-dimethylpentyl)-2-(trifluoromethyl)-2H-chromene-3-carboxylic acid] | – | 16.1 µM and 13.1 µM
CCCC(C)(C)c1cc2c(cc1Cl)C=C(C(=O)O)C(C(F)(F)F)O2 (stereo not drawn) [Example 111, 6-chloro-7-(1,1-dimethylbutyl)-2-(trifluoromethyl)-2H-chromene-3-carboxylic acid] | – | 9.16 µM and 9.17 µM
COc1cc2c(cc1C(C)(C)C)OC(C(F)(F)F)C(C(=O)O)=C2 (stereo not drawn) [Example 112, 7-tert-butyl-6-methoxy-2-(trifluoromethyl)-2H-chromene-3-carboxylic acid] | – | > 100 µM
C=C(C)c1cc2c(cc1Cl)C=C(C(=O)O)C(C(F)(F)F)O2 (stereo not drawn) [Example 113, 6-chloro-7-isopropenyl-2-(trifluoromethyl)-2H-chromene-3-carboxylic acid] | – | > 100 µM
CC(C)(C=O)c1ccc2c(c1)OC(C(F)(F)F)C(C(=O)O)=C2 (stereo not drawn) [Example 114, 7-(1,1-dimethyl-2-oxoethyl)-2-(trifluoromethyl)-2H-chromene-3-carboxylic acid] | – | 63.9 µM
CC(C)(C(=O)O)c1cc2c(cc1Cl)C=C(C(=O)O)C(C(F)(F)F)O2 (stereo not drawn) [Example 115, 7-(1-carboxy-1-methylethyl)-6-chloro-2-(trifluoromethyl)-2H-chromene-3-carboxylic acid] | – | > 100 µM
COCC(C)(C)c1cc2c(cc1Cl)C=C(C(=O)O)C(C(F)(F)F)O2 (stereo not drawn) [Example 116, 6-chloro-7-(2-methoxy-1,1-dimethylethyl)-2-(trifluoromethyl)-2H-chromene-3-carboxylic acid] | – | > 100 µM
CC(C)(C#N)c1cc2c(cc1Cl)C=C(C(=O)O)C(C(F)(F)F)O2 (stereo not drawn) [Example 118, 6-chloro-7-(1-cyano-1-methylethyl)-2-(trifluoromethyl)-2H-chromene-3-carboxylic acid] | – | > 100 µM
O=C(O)C1=Cc2c(cc3c(c2Cl)OCO3)OC1C(F)(F)F (stereo not drawn) [Example 119, 9-chloro-6-(trifluoromethyl)-6H-[1,3]dioxolo[4,5-g]chromene-7-carboxylic acid] | – | > 500 µM
CCCc1ccc(Oc2ccc3c(c2)OC(C(F)(F)F)C(C(=O)O)=C3)cc1 (stereo not drawn) [Example 713, 7-(4-Propylphenoxy)-2-(trifluoromethyl)-2H-chromene-3-carboxylic acid] | 143.5 to 146.5 °C | –
CCc1cnc(Oc2cc3c(cc2Cl)C=C(C(=O)O)C(C(F)(F)F)O3)nc1 (stereo not drawn) [Example 864, 6-Chloro-7-[(5-ethylpyrimidin-2-yl)oxy]-2-(trifluoromethyl)-2H-chromene-3-carboxylic acid] | 96.5 to 98 °C | –

Further lines, results first:

melting point | IC50 [1] | SMILES
130 to 131 °C | – | CCc1ccc(Oc2cc3c(cc2Cl)C=C(C(=O)O)[C@H](C(F)(F)F)O3)cc1 (single isomer, unassigned) [Example 931]
90 to 95 °C | – | CCc1ccc(Oc2cc3c(cc2Cl)C=C(C(=O)O)[C@@H](C(F)(F)F)O3)cc1 (single isomer, unassigned) [Example 939]
191 to 193 °C | – | O=C(O)C1=Cc2c(ccc(Cl)c2-c2ccco2)OC1C(F)(F)F (stereo not drawn) [Example 867, 6-Chloro-5-(2-furyl)-2-(trifluoromethyl)-2H-chromene-3-carboxylic acid]
211 to 213.5 °C | – | O=C(O)C1=Cc2c(ccc(Cl)c2-c2ccsc2)OC1C(F)(F)F (stereo not drawn) [Example 868, 6-Chloro-5-thien-3-yl-2-(trifluoromethyl)-2H-chromene-3-carboxylic acid]
218 to 220 °C | – | Cc1ccc(-c2c(Cl)ccc3c2C=C(C(=O)O)C(C(F)(F)F)O3)cc1 (stereo not drawn) [Example 869, 6-Chloro-5-(4-methylphenyl)-2-(trifluoromethyl)-2H-chromene-3-carboxylic acid]
222.5 to 224 °C | – | Cc1cccc(-c2c(Cl)ccc3c2C=C(C(=O)O)C(C(F)(F)F)O3)c1 (stereo not drawn) [Example 870, 6-Chloro-5-(3-methylphenyl)-2-(trifluoromethyl)-2H-chromene-3-carboxylic acid]
184 to 186.5 °C | – | CC(C)c1cccc(-c2c(Cl)ccc3c2C=C(C(=O)O)C(C(F)(F)F)O3)c1 (stereo not drawn) [Example 871, 6-Chloro-5-(3-isopropylphenyl)-2-(trifluoromethyl)-2H-chromene-3-carboxylic acid]
229 to 231 °C | – | O=C(O)C1=Cc2c(ccc(Cl)c2-c2ccccc2)OC1C(F)(F)F (stereo not drawn) [Example 872, 6-Chloro-5-phenyl-2-(trifluoromethyl)-2H-chromene-3-carboxylic acid]
171.5 to 172.5 °C | – | CCc1c(Cl)ccc2c1C=C(C(=O)O)C(C(F)(F)F)O2 (stereo not drawn) [Example 873, 6-Chloro-5-ethyl-2-(trifluoromethyl)-2H-chromene-3-carboxylic acid]
208.5 to 210 °C | – | Nc1c(Cl)ccc2c1C=C(C(=O)O)C(C(F)(F)F)O2 (stereo not drawn) [Example 876, 5-Amino-6-chloro-2-(trifluoromethyl)-2H-chromene-3-carboxylic acid]
> 250 °C | – | O=C(O)C1=Cc2cc3occ(-c4ccc(Br)cc4)c3cc2OC1C(F)(F)F (stereo not drawn) [Example 921, 3-(4-bromophenyl)-6-(trifluoromethyl)-6H-furo[2,3-g]chromene-7-carboxylic acid]
> 250 °C | – | O=C(O)C1=Cc2c(ccc3occ(-c4ccc(Br)cc4)c23)OC1C(F)(F)F (stereo not drawn) [Example 922, 1-Para-bromophenyl-7-(trifluoromethyl)-7H-furo[3,2-f]chromene-8-carboxylic acid]
